One assay deals with DU-145. The experiment in a line: Antitumor activity against human DU145 cells xenografted in nude Balb/c mouse assessed as inhibition of tumor volume at 100 mg/kg administered orally using gastric tube once daily for 14 days starting at mean tumor volume of 200 to 250 mm3. As to conditions: Prostate. It counts as functional, organism-based. (In general: In xenograft studies the graft and the host belong to different species.)

The next assay deals with SW-620. The experiment in a line: Antitumor activity against human SW620 cells xenografted in nude Balb/c mouse assessed as inhibition of tumor volume at 100 mg/kg administered orally using gastric tube once daily for 17 days starting at mean tumor volume of 200 to 250 mm3. Type of assay: functional, organism-based.
Assay [1] in a line: Antiproliferative activity against human SW620 cells assessed as inhibition of cell proliferation incubated for 4 days by CCK8 assay. Type of assay: functional, cell-based. The following applies: SW-620, 96 h.

Active and inactive are the calls of the source. No cut-off for these calls is given here.

The term IC50 denotes the concentration needed to halve the response being measured.

For the compound `CNC(=O)c1cc(NC2(C(=O)Nc3nc4ccc5[nH]ncc5c4s3)CC2)ccc1Cl`, the inhibition entry in the assay with DU-145 and in the assay with SW-620 was “Active” each time.
In the case of `CC(C)(Nc1ccc(Cl)c(OCC(O)CO)c1)C(=O)Nc1nc2c(C(F)(F)F)cc3[nH]ncc3c2s1` (configuration not stated), in the assay on DU-145, the inhibition result is “Active”.
Take `CC(C)(Nc1ccc(Cl)cc1)C(=O)Nc1nc2ccc3[nH]ncc3c2s1`: the inhibition entry in the assay with DU-145 and in the assay with SW-620 was “Active” in each case.
For `CC(C)(C)C(=O)Nc1cc(NC(C)(C)C(=O)Nc2nc3ccc4[nH]ncc4c3s2)ccc1Cl`, the IC50 in assay [1] is 2.7 µM.
Take `CCNC(=O)c1cc(NC(C)(C)C(=O)Nc2nc3c(C(F)(F)F)cc4[nH]ncc4c3s2)ccc1Cl`: the inhibition result in the assay on DU-145 is “Active”.
